This assay has as its system patients of the practice. As to the kind of experiment: second study: questionnaire on cardiac events in patients of the practice treated with finasteride vs control group. In kind it is in vivo, human. The note with it: 4 events over 242 patient-years; control 3.5%/yr. As for the experimental part:
Finasteride was being administered at a dosage of a single oral 5 mg tablet a day. This is the same tablet used in treatment of BPH as disclosed in U.S. Pat. No. 5,175,155 and such dosage applies in the present invention. However, use of a 2 mg or 10 mg oral tablet is contemplated.
Two studies were undertaken to determine whether finasteride was, in fact, effective in lessening the incidence of heart disease and other complications of atherosclerosis.
In the second study patients of the practice were given a questionnaire. Various patients had been treated with finasteride for varying lengths of time. Only those on the drug for at least one year were considered. The average time on finasteride was 3 years. The number of cardiac events occurring in the patients taking finasteride was only 4 events over 242 patient-years. (1.6%/yr.) In the control group 26 events occurred in the 3 years prior over 732 patient-years. (3.5%/yr.)
The […] observed in cardiac events is believed to be significant. (90% Cl equal to 1.4% to 3.7%)

Consider `CC(C)(C)NC(=O)[C@H]1CC[C@H]2[C@@H]3CC[C@H]4NC(=O)C=C[C@]4(C)[C@H]3CC[C@]12C` [finasteride, 4-azaandrost-1-ene-17-carboxamide, N-(1,1-dimethylethyl)-3-oxo-(5a 17B)-], for which the “cardiac events per patient-year” value amounted to 1.6 %/yr.
